Test results reported in ChEMBL document CHEMBL3044647, “Tests for Evaluating the Side Effects of Chlorothalonil (TPN) and Spinosad on the Parasitic Wasp (Aphidius colemani)” (J Pestic Sci, 2005).

Legend:
[1] = Residual toxicity against Aphidius colemani in strawberry leaf assessed as mortality at 50 mg/l leaves collected after 10 days of application measured after 48 hr relative to control; format: organism-based; settings: in vivo
[2] = Residual toxicity against Aphidius colemani in strawberry leaf assessed as mortality at 50 mg/l leaves collected after 20 days of application measured after 24 hr relative to control; format: organism-based; settings: in vivo
[3] = Toxicity against Aphidius colemani in kidney bean leaf assessed as mortality at 5 mg/l treated as spraying after 24 hr relative to control; format: organism-based; settings: in vivo
[4] = Drug level in Fragaria x ananassa (strawberry) leaf at 50 mg/l leaves after 10 days; format: ADME; settings: read-out: Drug uptake
[5] = Toxicity against Aphidius colemani in strawberry leaf assessed as mortality at 100 mg/l treated as spraying after 24 hr relative to control; format: organism-based; settings: in vivo
[6] = Drug level in Fragaria x ananassa (strawberry) leaf at 50 mg/l leaves after 30 days; format: ADME; settings: read-out: Drug uptake
[7] = Toxicity against Aphidius colemani in kidney bean leaf assessed as mortality at 1 mg/l treated as spraying after 24 hr relative to control; format: organism-based; settings: in vivo
[8] = Toxicity against Aphidius colemani in kidney bean leaf assessed as mortality at 5 mg/l treated as spraying after 48 hr relative to control; format: organism-based; settings: in vivo
[9] = Toxicity against Aphidius colemani in strawberry leaf assessed as mortality at 5 mg/l treated as spraying after 24 hr relative to control; format: organism-based; settings: in vivo, other: spraying
[10] = Toxicity against Aphidius colemani in kidney bean leaf assessed as mortality at 83.3 mg/l treated as spraying after 24 hr relative to control; format: organism-based; settings: in vivo, other: spraying
[11] = Toxicity against Aphidius colemani in cucumber leaf assessed as mortality at 20 mg/l treated as spraying after 24 hr relative to control; format: organism-based; settings: in vivo, other: spraying
Leaf [12] = experiment: Drug level in Cucumis sativus (cucumber) leaf assessed as deposition in leaf at 20 mg/l; format: ADME
[13] = Toxicity against Aphidius colemani assessed as mortality at 100 mg/l, po after 24 hr relative to control; format: organism-based; settings: in vivo
[14] = Toxicity against Aphidius colemani in cucumber leaf assessed as mortality at 10 mg/l treated as spraying after 48 hr relative to control; format: organism-based; settings: in vivo, other: spraying
Leaf [15] = experiment: Drug level in Phaseolus vulgaris (kidney bean) leaf assessed as deposition in leaf at 1 mg/l; format: ADME
[16] = Residual toxicity against Aphidius colemani in strawberry leaf assessed as mortality at 50 mg/l leaves collected after 30 days of application measured after 24 hr relative to control; format: organism-based; settings: in vivo
[17] = Drug level in Fragaria x ananassa (strawberry) leaf at 50 mg/l leaves after 5 days; format: ADME; settings: read-out: Drug uptake
[18] = Toxicity against Aphidius colemani in kidney bean leaf assessed as mortality at 0.8 mg/l treated as spraying after 48 hr relative to control; format: organism-based; settings: in vivo, other: spraying
[19] = Contact toxicity against Aphidius colemani assessed as mortality at 100 mg/l after 24 hr; format: organism-based; settings: in vivo, other: contact
Leaf [20] = experiment: Drug level in Cucumis sativus (cucumber) leaf assessed as deposition in leaf at 5 mg/l; format: ADME
Aphidius colemani [21] = experiment: Drug uptake in Aphidius colemani at 100 mg/l treated as spraying; format: ADME, organism-based; settings: in vivo, topical_or_ocular
Leaf [22] = experiment: Drug level in Phaseolus vulgaris (kidney bean) leaf assessed as deposition in leaf at 5 mg/l; format: ADME
[23] = Toxicity against Aphidius colemani in kidney bean leaf assessed as mortality at 100 mg/l treated as spraying after 24 hr relative to control; format: organism-based; settings: in vivo
[24] = Drug level in Fragaria x ananassa (strawberry) leaf at 50 mg/l leaves after 40 days; format: ADME; settings: read-out: Drug uptake
[25] = Toxicity against Aphidius colemani in kidney bean leaf assessed as mortality at 0.8 mg/l treated as spraying after 24 hr relative to control; format: organism-based; settings: in vivo
[26] = Toxicity against Aphidius colemani in kidney bean leaf assessed as mortality at 100 mg/l treated as spraying after 48 hr relative to control; format: organism-based; settings: in vivo, other: spraying
[27] = Toxicity against Aphidius colemani in cucumber leaf assessed as mortality at 10 mg/l treated as spraying after 24 hr relative to control; format: organism-based; settings: in vivo, other: spraying
[28] = Toxicity against Aphidius colemani in cucumber leaf assessed as mortality at 5 mg/l treated as spraying after 24 hr relative to control; format: organism-based; settings: in vivo, other: spraying
[29] = Toxicity against Aphidius colemani in kidney bean leaf assessed as mortality at 8.3 mg/l treated as spraying after 48 hr relative to control; format: organism-based; settings: in vivo
[30] = Toxicity against Aphidius colemani in strawberry leaf assessed as mortality at 5 mg/l treated as spraying after 48 hr relative to control; format: organism-based; settings: in vivo
[31] = Toxicity against Aphidius colemani in strawberry leaf assessed as mortality at 100 mg/l treated as spraying after 48 hr relative to control; format: organism-based; settings: in vivo
Leaf [32] = experiment: Drug level in Cucumis sativus (cucumber) leaf assessed as deposition in leaf at 10 mg/l; format: ADME
[33] = Toxicity against Aphidius colemani assessed as mortality at 100 mg/l, po after 24 hr; format: organism-based; settings: in vivo
[34] = Toxicity against Aphidius colemani in kidney bean leaf assessed as mortality at 83.3 mg/l treated as spraying after 48 hr relative to control; format: organism-based; settings: in vivo, other: spraying
Leaf [35] = experiment: Drug level in Phaseolus vulgaris (kidney bean) leaf assessed as deposition in leaf at 8.3 mg/l; format: ADME
[36] = Residual toxicity against Aphidius colemani in strawberry leaf assessed as mortality at 50 mg/l leaves collected after 10 days of application measured after 24 hr relative to control; format: organism-based; settings: in vivo
[37] = Contact toxicity against Aphidius colemani assessed as mortality at 100 mg/l after 24 hr relative to control; format: organism-based; settings: in vivo, other: contact
Leaf [38] = experiment: Drug level in Cucumis sativus (cucumber) leaf assessed as deposition in leaf at 100 mg/l; format: ADME
[39] = Residual toxicity against Aphidius colemani in strawberry leaf assessed as mortality at 50 mg/l leaves collected after 40 days of application measured after 24 hr relative to control; format: organism-based; settings: in vivo
Leaf [40] = experiment: Drug level in Phaseolus vulgaris (kidney bean) leaf assessed as deposition in leaf at 0.8 mg/l; format: ADME
[41] = Toxicity against Aphidius colemani in cucumber leaf assessed as mortality at 5 mg/l treated as spraying after 48 hr relative to control; format: organism-based; settings: in vivo
[42] = Drug level in Fragaria x ananassa (strawberry) leaf at 50 mg/l leaves after 20 days; format: ADME; settings: read-out: Drug uptake
[43] = Residual toxicity against Aphidius colemani in strawberry leaf assessed as mortality at 50 mg/l leaves collected after 5 days of application measured after 48 hr relative to control; format: organism-based; settings: in vivo
[44] = Residual toxicity against Aphidius colemani in strawberry leaf assessed as mortality at 50 mg/l leaves collected after 30 days of application measured after 48 hr relative to control; format: organism-based; settings: in vivo
Leaf [45] = experiment: Drug level in Phaseolus vulgaris (kidney bean) leaf assessed as deposition in leaf at 100 mg/l; format: ADME
Leaf [46] = experiment: Drug level in Phaseolus vulgaris (kidney bean) leaf assessed as deposition in leaf at 83.3 mg/l; format: ADME
[47] = Toxicity against Aphidius colemani in strawberry leaf assessed as mortality at 1 mg/l treated as spraying after 48 hr relative to control; format: organism-based; settings: in vivo, other: spraying
[48] = Toxicity against Aphidius colemani in cucumber leaf assessed as mortality at 100 mg/l treated as spraying after 24 hr relative to control; format: organism-based; settings: in vivo, other: spraying
[49] = Toxicity against Aphidius colemani in strawberry leaf assessed as mortality at 1 mg/l treated as spraying after 24 hr relative to control; format: organism-based; settings: in vivo, other: spraying
Leaf [50] = experiment: Drug level in Fragaria x ananassa (strawberry) leaf assessed as deposition in leaf at 5 mg/l; format: ADME
[51] = Residual toxicity against Aphidius colemani in strawberry leaf assessed as mortality at 50 mg/l leaves collected after 5 days of application measured after 24 hr relative to control; format: organism-based; settings: in vivo
[52] = Toxicity against Aphidius colemani in cucumber leaf assessed as mortality at 100 mg/l treated as spraying after 48 hr relative to control; format: organism-based; settings: in vivo
Leaf [53] = experiment: Drug level in Fragaria x ananassa (strawberry) leaf assessed as deposition in leaf at 100 mg/l; format: ADME
[54] = Residual toxicity against Aphidius colemani in strawberry leaf assessed as mortality at 50 mg/l leaves collected after 20 days of application measured after 48 hr relative to control; format: organism-based; settings: in vivo
[55] = Residual toxicity against Aphidius colemani in strawberry leaf assessed as mortality at 50 mg/l leaves collected after 40 days of application measured after 48 hr relative to control; format: organism-based; settings: in vivo
Leaf [56] = experiment: Drug level in Fragaria x ananassa (strawberry) leaf assessed as deposition in leaf at 1 mg/l; format: ADME
[57] = Toxicity against Aphidius colemani in kidney bean leaf assessed as mortality at 1 mg/l treated as spraying after 48 hr relative to control; format: organism-based; settings: in vivo
[58] = Toxicity against Aphidius colemani in cucumber leaf assessed as mortality at 20 mg/l treated as spraying after 48 hr relative to control; format: organism-based; settings: in vivo
[59] = Toxicity against Aphidius colemani in kidney bean leaf assessed as mortality at 8.3 mg/l treated as spraying after 24 hr relative to control; format: organism-based; settings: in vivo
Aphidius colemani [60] = experiment: Drug uptake in Aphidius colemani at 400 mg/l treated as dipping; format: ADME, organism-based; settings: in vivo, topical_or_ocular
[61] = Toxicity against Aphidius colemani assessed as mortality at 400 mg/l, po after 24 hr; format: organism-based; settings: in vivo
[62] = Contact toxicity against Aphidius colemani assessed as mortality at 400 mg/l after 24 hr relative to control; format: organism-based; settings: in vivo, other: contact
[63] = Contact toxicity against Aphidius colemani assessed as mortality at 400 mg/l after 24 hr; format: organism-based; settings: in vivo, other: contact
[64] = Toxicity against Aphidius colemani assessed as mortality at 400 mg/l, po after 24 hr relative to control; format: organism-based; settings: in vivo
Aphidius colemani [65] = experiment: Drug uptake in Aphidius colemani at 400 mg/l treated as spraying; format: ADME, organism-based; settings: in vivo, topical_or_ocular

Compound: CC[C@H]1CCC[C@H](O[C@H]2CC[C@H](N(C)C)[C@@H](C)O2)[C@@H](C)C(=O)C2=C[C@@H]3[C@@H](C=C(C)[C@@H]4C[C@@H](O[C@@H]5O[C@@H](C)[C@H](OC)[C@@H](OC)[C@H]5OC)C[C@@H]34)[C@@H]2CC(=O)O1.CC[C@H]1CCC[C@H](O[C@H]2CC[C@H](N(C)C)[C@@H](C)O2)[C@@H](C)C(=O)C2=C[C@@H]3[C@@H](C=C[C@@H]4C[C@@H](O[C@@H]5O[C@@H](C)[C@H](OC)[C@@H](OC)[C@H]5OC)C[C@@H]34)[C@@H]2CC(=O)O1
- mortality at 48 h [1]: 93.6%
- mortality at 24 h [2]: 27.7%
- mortality at 24 h [3]: 4%
- concentration at 240 h [4]: 28800 ng/g
- mortality at 24 h [5]: 95.8%
- concentration at 720 h [6]: 11400 ng/g
- mortality at 24 h [7]: 0%
- mortality at 48 h [8]: 0%
- mortality at 24 h [9]: 3.3%
- mortality at 24 h [10]: 96.9%
- mortality at 24 h [11]: 48.3%
- Drug uptake (Leaf [12]): 0.177%
- mortality at 24 h [13]: 91.3%
- mortality at 48 h [14]: 10%
- Drug uptake (Leaf [15]): 0.004%
- mortality at 24 h [16]: 4.3%
- concentration at 120 h [17]: 38800 ng/g
- mortality at 48 h [18]: 8.9%
- mortality at 24 h [19]: 100%
- Drug uptake (Leaf [20]): 0.022%
- Drug uptake (Aphidius colemani [21]): 3.63 ng
- Drug uptake (Leaf [22]): 0.025%
- mortality at 24 h [23]: 90%
- concentration at 960 h [24]: 9200 ng/g
- mortality at 24 h [25]: 0%
- mortality at 48 h [26]: 97.8%
- mortality at 24 h [27]: 3.3%
- mortality at 24 h [28]: 3.3%
- mortality at 48 h [29]: 98.2%
- mortality at 48 h [30]: 17.2%
- mortality at 48 h [31]: 100%
- Drug uptake (Leaf [32]): 0.044%
- mortality at 24 h [33]: 93.3%
- mortality at 48 h [34]: 100%
- Drug uptake (Leaf [35]): 0.219%
- mortality at 24 h [36]: 62%
- mortality at 24 h [37]: 100%
- Drug uptake (Leaf [38]): 0.93%
- mortality at 24 h [39]: 4%
- Drug uptake (Leaf [40]): 0.023%
- mortality at 48 h [41]: 0%
- concentration at 480 h [42]: 23000 ng/g
- mortality at 48 h [43]: 95.1%
- mortality at 48 h [44]: 0%
- Drug uptake (Leaf [45]): 2.37%
- Drug uptake (Leaf [46]): 2.108%
- mortality at 48 h [47]: 0%
- mortality at 24 h [48]: 100%
- mortality at 24 h [49]: 0%
- Drug uptake (Leaf [50]): 0.022%
- mortality at 24 h [51]: 74.4%
- mortality at 48 h [52]: 100%
- Drug uptake (Leaf [53]): 1.145%
- mortality at 48 h [54]: 55.9%
- mortality at 48 h [55]: 0%
- Drug uptake (Leaf [56]): 0.003%
- mortality at 48 h [57]: 21.4%
- mortality at 48 h [58]: 86.7%
- mortality at 24 h [59]: 90%

Compound: N#Cc1c(Cl)c(Cl)c(Cl)c(C#N)c1Cl [CHLOROTHALONIL]
- Drug uptake (Aphidius colemani [60]): 5.5 ng
- mortality at 24 h [61]: 0%
- mortality at 24 h [62]: 8.7%
- mortality at 24 h [63]: 30%
- mortality at 24 h [64]: 0%
- Drug uptake (Aphidius colemani [65]): 25.1 ng
